Measured values from patent publication US9181234B2, “Antibacterial compounds” (priority 2010, dated 2015).
≈ marks a conversion by molar mass, not a printed value.

Experiments:
[1] = Pharmacokinetic assay, IV and oral PK profile, rat; format: in vivo; details: for bioavailability: read-out: F (%) bioavailability
Method: (§1) Pharmacokinetic Assays: Determination of PK Profile
(§2) The pharmacokinetic profiles of compounds were determined by measuring the compound concentration in plasma by LC/MS/MS following a single intravenous or peroral administration of the compounds at a dose of 3 mg/kg. The concentrations described are the mean plasma concentrations at each time point from three animals. Intravenous dose formulation was administered as a single bolus dose through the tail vein. Oral dose formulation was administered to animals by an oral gavage needle. In both cases the dose volume was 5.0 mL/kg. Blood was collected from rats using a jugular vein catheter and from anesthetized mice through a capillary guided into the retro-orbital plexus. The collected blood was centrifuged to obtain plasma and the compounds extracted into methanol prior to determining the compound concentration by LC/MS/MS. The results for selected compounds of the invention are shown in FIGS. 2 to 8 where the X axis denotes time (hours) and the Y axis denotes plasma concentration (ng/mL). The Cmaxoral (μg/mL), AUCiv (μg·hr/mL), AUCoral (μg.hr/mL) and F(%) values are provided in the following table where Cmaxoral is the maximum oral concentration, AUC is area under the curve for intraveneous (IV) and oral and F (%) represents compound bioavailability as calculated by [AUCoral/AUCiv]×100%.

[2] = tested on: Haemophilus influenzae (Isolate ID ATCC 49247); assay: Antibacterial activity, MIC, H. influenzae; format: cell-based; details: Haemophilus influenzae, ATCC49247; Gram negative strain; broth microdilution or agar dilution
Outline: (§3)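 Compounds are serially diluted in broth or agar as CLSI specifies for aerobically growing bacteria, and the MIC is then recorded for each strain.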

[3] = tested on: Enterococcus faecalis (Isolate ID ATCC 29212); assay: Antibacterial activity, MIC, E. faecalis; format: cell-based; details: Enterococcus faecalis, ATCC29212; Gram positive strain; broth microdilution or agar dilution
Outline: as §3

physchem = details: kinetic from dmso stock
Outline: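 DMSO doubling dilutions were diluted twenty-fold into 100 mM citrate (pH 4), PBS (pH 7.4) or carbonate-bicarbonate (pH 9). After 24 h equilibration at room temperature, absorbance was read at 620 nm. The reported value is the highest concentration without measurable precipitate.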

[4] = tested on: Streptococcus pyogenes (Isolate ID ATCC 51339); assay: Antibacterial activity, MIC, S. pyogenes; format: cell-based; details: Streptococcus pyogenes, ATCC51339, Gram positive strain; broth microdilution or agar dilution
Outline: as §3

[5] = tested on: Staphylococcus aureus (Isolate ID ATCC 29213); assay: Antibacterial activity, MIC, S. aureus; format: cell-based; details: Staphylococcus aureus, ATCC29213, Gram positive strain; broth microdilution or agar dilution
Outline: as §3

[6] = Pharmacokinetic assay, IV and oral PK profile, mouse; format: in vivo; details: plasma; for bioavailability: [AUCoral/AUCiv]×100%, 3 mg/kg, read-out: F (%) bioavailability
Method: as §1, §2

[7] = po, single peroral dose 3 mg/kg, plasma, read-out: AUCoral
[8] = single peroral dose 3 mg/kg, plasma
[9] = pH 7.4, aqueous buffer, Max Solubility
[10] = pH 7.4, aqueous buffer, Solubility (pH 7.4)
[11] = pH 7.4, aqueous buffer, Solubility Range
[12] = pH 7.4, aqueous buffer, Solubility Range (maximum solubility)
[13] = po, single peroral dose 3 mg/kg, read-out: AUCoral
[14] = single intravenous dose 3 mg/kg, read-out: AUCiv
[15] = plasma, po, [AUCoral/AUCiv]×100%, 3 mg/kg
[16] = single intravenous dose 3 mg/kg, plasma, read-out: AUCiv

Compound | F (%) bioavailability ([1]; [AUCoral/AUCiv]×100%, 3 mg/kg) [%] | AUC [1, 7] [ng·h/mL] | AUCiv ([1]; single intravenous dose 3 mg/kg, plasma) [ng·h/mL] | Cmaxoral [1, 8] [ng/mL] | MIC [2] [µg/mL] | MIC [3] [µg/mL] | solubility at 24 h (physchem; [9]) [µg/mL] | solubility at 24 h (physchem; [10]) [µg/mL] | solubility at 24 h (physchem; [11]) [µg/mL] | solubility at 24 h (physchem; [12]) [µg/mL] | MIC [4] [µg/mL] | MIC [5] [µg/mL] | bioavailability ([6]; po) [%] | AUC [6, 13] [ng·h/mL] | AUC [6, 14] [ng·h/mL] | Cmaxoral ([6]; single peroral dose 3 mg/kg) [ng/mL] | bioavailability [1, 15] [%] | AUC [1, 16] [ng·h/mL] | solubility at 24 h (physchem; pH 9, aqueous buffer, Max Solubility) [µg/mL] | solubility at 24 h (physchem; pH 9, aqueous buffer, Solubility Range (maximum solubility)) [µg/mL]
CCNC(=O)Nc1nc2cc(-c3cnc(N4CCC(C)(C(=O)O)CC4)nc3)cc(-c3ccccn3)c2s1 [Compound 1, 1-[5-[2-(ethylcarbamoylamino)-7-(2-pyridyl)-1,3-benzothiazol-5-yl]pyrimidin-2-yl]-4-methyl-piperidine-4-carboxylic acid] | 48 | 8300 | 17400 | 1800 | 1 to 16 (≈ 1.93 to 30.9 µM) | ≤ 0.25 | ≥ 800 | ≥ 800 | > 800 | > 800 | ≤ 0.25 | ≤ 0.25 |  |  |  |  |  |  |  | 
CCNC(=O)Nc1nc2cc(-c3ccc(N4CCC(C)(C(=O)O)CC4)nc3)cc(-c3ccccn3)c2s1 [Compound 4] |  | 2100 |  | 600 | 1 to 16 (≈ 1.94 to 31 µM) | ≤ 0.25 | ≥ 800 | ≥ 800 | > 800 | > 800 | ≤ 0.25 | 0.25 to 1 (≈ 0.484 to 1.94 µM) | 33 | 2500 | 7600 | 1700 | 31 | 6600 |  | 
CCNC(=O)Nc1nc2cc(-c3cnc(N4CCC(C)(C(=O)O)CC4)nc3)cc(-c3cscn3)c2s1 [Compound 21] |  | 1000 |  | 400 | 1 to 16 (≈ 1.91 to 30.6 µM) | ≤ 0.25 |  | ≥ 800 | > 800 |  | 0.25 to 1 (≈ 0.477 to 1.91 µM) | ≤ 0.25 |  |  |  |  | 14.3 | 7100 |  | 
CCNC(=O)Nc1nc2cc(-c3cnc(N4CCC(C)(C(=O)O)CC4)nc3)cc(/C(C)=N/OC)c2s1 [Compound 88, 1-[5-[2-(ethylcarbamoylamino)-7-[(E)-N-methoxy-C-methyl-carbonimidoyl]-1,3-benzothiazol-5-yl]pyrimidin-2-yl]-4-methyl-piperidine-4-carboxylic acid] |  |  |  |  | 1 to 16 (≈ 1.95 to 31.3 µM) | ≤ 0.25 | ≥ 800 | ≥ 800 | > 800 | > 800 | ≤ 0.25 | ≤ 0.25 | 56 | 3400 | 6100 | 2000 |  |  |  | 
CCNC(=O)Nc1nc2cc(-c3ccc(N4CCC(CC)(C(=O)O)CC4)nc3)cc(-c3ccccn3)c2s1 [Compound 103] |  | 22200 |  | 5700 | 1 to 16 (≈ 1.88 to 30.2 µM) | ≤ 0.25 |  | 400 (≈ 754 µM) | 400 to 800 (≈ 754 to 1510 µM) |  | ≤ 0.25 | ≤ 0.25 |  |  |  |  | 76.5 | 29000 | ≥ 800 | > 800
CCNC(=O)Nc1nc2cc(-c3cnc(N4CCC(COC)(C(=O)O)CC4)nc3)cc(-c3ccccn3)c2s1 [Compound 141] |  | 700 |  | 300 | 1 to 16 (≈ 1.83 to 29.2 µM) | ≤ 0.25 | ≥ 800 | ≥ 800 | > 800 | > 800 | ≤ 0.25 | ≤ 0.25 |  |  |  |  | 8.9 | 8300 |  | 
CCNC(=O)Nc1nc2cc(-c3cnc(N4CCC(C(=O)O)(C5CC5)CC4)nc3)cc(-c3ccccn3)c2s1 [Compound 143] |  | 4700 |  | 700 | 1 to 16 (≈ 1.84 to 29.4 µM) | ≤ 0.25 | ≥ 800 | ≥ 800 | > 800 | > 800 | ≤ 0.25 | ≤ 0.25 |  |  |  |  | 10 | 46900 |  | 
CCNC(=O)Nc1nc2c(F)c(-c3cnc(N4CCC(C)(C(=O)O)CC4)nc3)cc(-c3ccccn3)c2s1 [Compound 161, 1-[5-[2-(ethylcarbamoylamino)-4-fluoro-7-(2-pyridyl)-1,3-benzothiazol-5-yl]pyrimidin-2-yl]-4-methyl-piperidine-4-carboxylic acid] |  | 4200 |  | 700 | 0.25 to 1 (≈ 0.467 to 1.87 µM) | ≤ 0.25 | ≥ 800 | ≥ 800 | > 800 | > 800 | ≤ 0.25 | ≤ 0.25 |  |  |  |  | 87 | 4800 |  | 
CCNC(=O)Nc1nc2cc(-c3cncc(N4CCC(C)(C(=O)O)CC4)c3)cc(-c3ccccn3)c2s1 [Compound 181] |  |  |  |  | 1 to 16 (≈ 1.94 to 31 µM) | ≤ 0.25 | ≥ 800 | ≥ 800 | > 800 | > 800 | ≤ 0.25 | 0.25 to 1 (≈ 0.484 to 1.94 µM) |  |  |  |  |  |  |  | 
CCNC(=O)Nc1nc2cc(-c3ccc(C4=NOC(C)(C(=O)O)C4)nc3)cc(-c3ccccn3)c2s1 (stereo not shown) [Compound 183] |  |  |  |  | 1 to 16 (≈ 1.99 to 31.8 µM) | 0.25 to 1 (≈ 0.497 to 1.99 µM) |  | 100 (≈ 199 µM) | 12.5 to 400 (≈ 24.9 to 796 µM) |  | ≤ 0.25 | 1 to 16 (≈ 1.99 to 31.8 µM) |  |  |  |  |  |  |  | 
CCNC(=O)Nc1nc2cc(-c3ccc(C4=NOC(C)(C(=O)OCC)C4)nc3)cc(-c3ccccn3)c2s1 (stereo not shown) [Compound 184] |  |  |  |  | 1 to 16 (≈ 1.88 to 30.2 µM) | ≤ 0.25 |  | 6.25 (≈ 11.8 µM) | < 12.5 |  | ≤ 0.25 | ≤ 0.25 |  |  |  |  |  |  |  | 
CCNC(=O)Nc1nc2cc(-c3cnc(N4CCC(C(N)=O)(c5ccccc5)CC4)nc3)cc(-c3ccccn3)c2s1 [Compound 185] |  |  |  |  | > 16 | ≤ 0.25 |  | 6.25 (≈ 10.8 µM) | < 12.5 |  | 1 to 16 (≈ 1.73 to 27.6 µM) | 0.25 to 1 (≈ 0.432 to 1.73 µM) |  |  |  |  |  |  |  | 
